Assay results as given in patent US10766869B2, “Triazoles for the treatment of demyelinating dieases” (Vertex Pharmaceuticals Incorporated, priority 2015, dated 2020).
Where two headings read alike, the source gives them in different places.

System: primary rat mixed cortical cells
Test: In vitro myelination assay (MBP positive myelin strands, fold myelin pixels above background)
Assay type: cell-based
Settings: Rattus norvegicus; for fold induction at 1 µM: 1.0 μM compound; for fold induction at 10 µM: 10.0 μM compound
Source text: In Vitro Myelination Assay
Compounds were screened for their ability to induce myelination using a primary rat mixed cortical cell culture assay, which contains neurons, oligodendrocyte precursor cells, oligodendrocytes, astrocytes and microglia. The assay quantifies myelination by measuring myelin basic protein (MBP) immunofluorescent positive myelin strands from images taken using a Cellomics Array Scan (model Arrayscan VTI HCS Reader) or a Molecular Devices Image Xpress (model IXM XL) high content imager. The myelin strands were quantitated using a custom created myelin detection software program. Test compounds were dissolved in DMSO to make a 10 mM initial stock solution. Dilutions were made in myelination medium to obtain the final solutions for the assay and were tested in primary rat mixed cortical cells at selected doses.
Primary rat mixed cortical cells were prepared from harvested cerebral cortices from postnatal day 1 (P1) rats (P1 Rat CD® IGS pups) were purchased from Charles River) in Complete Dissociation Medium, wherein the meninges were removed and the cortical tissue chopped with a razor blade into ˜1 mm^3 pieces. Tissue from 1-3 pups was collected and placed into 15 ml conical tubes in a total volume of 5 ml of Complete Dissociation Medium. Activated papain (3 ml) was added to each 15 ml conical tube and tissue was incubated at 37° C. for 30 minutes. After the 30 minute incubation, DNase (Sigma D4527; 75 μl of a 1 mg/ml stock) was added to each tube, followed by mechanical trituration using a 2 ml serological pipette and autopipettor to gently dissociate the tissue. Following trituration, larger tissue pieces were allowed to settle by gravity, and the supernatant containing dissociated cells was transferred to a 50 ml conical tube with 4 ml of trypsin inhibitor. Cells were pelleted by centrifugation, resuspended in myelination medium and filtered through a 40 μm filter. Cells were then seeded in 96-well plates (BD Biosciences, Black, PDL-coated, Cat. No. 356640) at 87,500-95,000 cells/well in a final volume of 200 μl of Myelination Medium in the presence or absence of compound and cultured for 14 days in a humidified 37° C. incubator with 5% CO2. Half the medium was removed and replaced with fresh medium containing 1× compound on days 6 and 10. Using a Biotek automatic plate washer (model Biomek® FXP Laboratory Automation Workstation), cells were fixed with 4% paraformaldehyde on day 14, washed with PBS and blocked in 5% normal goat serum (Vector Laboratories, S-1000) in 0.1% PBS-TritonX-100 (PBST) for 1 hour. Cells were stained with 1:500 anti-MBP (Covance, cat # SMI99) primary antibody in 1% normal goat serum in 0.1% PBST for 2 hours at room temperature followed by 2 washes with PBST. A final incubation in secondary antibody (1:1000, Invitrogen, Alexa-488 anti-mouse IgG2b) and 1:10,000 Hoechst dye in 1% normal goat serum in 0.1% PBST was performed for 2 hours at room temperature. Plates were washed with PBS and then scanned on a Cellomics Array Scan using a 10× objective (25 images per well) or the Image Xpress using a 10× objective (9 image per well). Images were analyzed using Vertex myelin detection software (described below) to quantify total MBP myelin pixels per well. Fold myelin pixels above background at two concentrations (1.0 μM and 10.0 μM) relative to baseline of no added compound are reported below in Table 4. Standard deviation for each compound concentration was calculated using all replicates and using a standard deviation formula commonly used in the art.
One of skill in the art would recognize that for this type of primary neuronal mixed cell assay variability between different assay runs is to be expected even though the protocol is the same for each assay run. For instance, variability may be due to small differences in cell viability, cell density, age of the animals, etc.
Vertex Myelin Detection Software: […]

[1] = relative to baseline of no added compound, read-out: Fold myelin pixels above background, 1.0 μM
[2] = relative to baseline of no added compound, read-out: Fold myelin pixels above background, 10.0 μM
[3] = read-out: Fold myelin pixels above background relative to baseline of no added compound
[4] = relative to baseline of no added compound, read-out: Fold myelin pixels above background

| SMILES | fold induction at 1 µM [1] | fold induction at 10 µM [2] | fold induction at 1 µM [3] | fold induction at 10 µM [3] | also measured |
| --- | --- | --- | --- | --- | --- |
| Cc1cc(Nc2ncn(-c3cc(F)cc(F)c3)n2)cc(NC2CCN(C3COC3)CC2)c1 [Compound 38, N3-[1-(3,5-difluorophenyl)-1,2,4-triazol-3-yl]-5-methyl-N1-[1-(oxetan-3-yl)-4-piperidyl]benzene-1,3-diamine] | 10 to 100 | 10 to 100 |  |  |  |
| Cc1cc(Nc2ncn(-c3cc(F)cc(F)c3)n2)cc(NC2CCN(C3CCOC3)CC2)c1 (centres unmarked) [Compound 1064, N3-[1-(3,5-difluorophenyl)-1,2,4-triazol-3-yl]-5-methyl-N1-(1-tetrahydrofuran-3-yl-4-piperidyl)benzene-1,3-diamine] |  |  | 10 to 100 | ≤ 1 |  |
| Cc1cc(Nc2ncn(-c3cccc(C(F)F)c3)n2)nc(N2CCN(C3COC3)CC2)c1 [Compound 848, N-[1-[3-(difluoromethyl)phenyl]-1,2,4-triazol-3-yl]-4-methyl-6-[4-(oxetan-3-yl)piperazin-1-yl]pyridin-2-amine] |  |  | 10 to 100 | 10 to 100 |  |
| Cc1cc(Nc2ncn(-c3cc(F)cc(F)c3)n2)cc(N2CCC(CCO)CC2)c1 [Compound 874, 2-[1-[3-[[1-(3,5-difluorophenyl)-1,2,4-triazol-3-yl]amino]-5-methyl-phenyl]-4-piperidyl]ethanol] |  |  | 10 to 100 | ≤ 1 |  |
| Fc1ccc(-n2cnc(Nc3cc(C(F)F)cc(N4CCN(C5COC5)CC4)n3)n2)cc1Cl [Compound 859, N-[1-(3-chloro-4-fluoro-phenyl)-1,2,4-triazol-3-yl]-4-(difluoromethyl)-6-[4-(oxetan-3-yl)piperazin-1-yl]pyridin-2-amine] |  |  | 1 to 10 | 1 to 10 |  |
| Cc1cc(Nc2ncn(-c3cc(F)cc(F)c3)n2)cc(N2CC(N3CCOC[C@H]3C)C2)c1 [Compound 670, 1-(3,5-difluorophenyl)-N-[3-methyl-5-[3-[(3R)-3-methylmorpholin-4-yl]azetidin-1-yl]phenyl]-1,2,4-triazol-3-amine] |  |  |  |  | fold induction at 1 µM [4]: 10 to 100; fold induction at 10 µM [4]: 10 to 100 |
| Cc1cc(Nc2ncn(-c3ccccc3)n2)cc(C2CCCNC2)c1 (centres unmarked) [Compound 316, N-[3-methyl-5-(3-piperidyl)phenyl]-1-phenyl-1,2,4-triazol-3-amine] | 100 to 1000 | ≤ 1 |  |  |  |
| Cc1cc(Nc2ncn(-c3ccc(F)c(C)c3)n2)cc(N2CCN(C3COC3)CC2)c1 [Compound 780, 1-(4-fluoro-3-methyl-phenyl)-N-[3-methyl-5-[4-(oxetan-3-yl)piperazin-1-yl]phenyl]-1,2,4-triazol-3-amine] |  |  |  |  | fold induction at 1 µM [4]: 1 to 10; fold induction at 10 µM [4]: 1 to 10 |
| COCCN1CCCC(Nc2cc(C)cc(Nc3ncn(-c4cc(F)cc(F)c4)n3)c2)C1 (centres unmarked) [Compound 1050, N3-[1-(3,5-difluorophenyl)-1,2,4-triazol-3-yl]-N1-[1-(2-methoxyethyl)-3-piperidyl]-5-methyl-benzene-1,3-diamine] |  |  | 10 to 100 | ≤ 1 |  |
| CC(C)Oc1cc(Nc2ncn(-c3cc(F)cc(F)c3)n2)cc(N2CC(N3CCOCC3)C2)c1 [Compound 830, 1-(3,5-difluorophenyl)-N-[3-isopropoxy-5-(3-morpholinoazetidin-1-yl)phenyl]-1,2,4-triazol-3-amine] |  |  | 100 to 1000 | 10 to 100 |  |
| Cc1cc(Nc2ncn(-c3cc(F)cc(F)c3)n2)cc(N2CC[C@H](N3CCCC3)C2)c1 [Compound 986, 1-(3,5-difluorophenyl)-N-[3-methyl-5-[(3S)-3-pyrrolidin-1-ylpyrrolidin-1-yl]phenyl]-1,2,4-triazol-3-amine] |  |  | 1 to 10 | ≤ 1 |  |
| Cc1cc(NCCN2CCOCC2C)cc(Nc2ncn(-c3cc(F)cc(F)c3)n2)c1 (centres unmarked) [Compound 1082, N1-[1-(3,5-difluorophenyl)-1,2,4-triazol-3-yl]-5-methyl-N3-[2-(3-methylmorpholin-4-yl)ethyl]benzene-1,3-diamine] |  |  | 10 to 100 | ≤ 1 |  |
| Fc1cc(Nc2ncn(-c3cccc(F)c3)n2)cc(NC2CNC2)c1 [Compound 351, N1-(azetidin-3-yl)-5-fluoro-N3-[1-(3-fluorophenyl)-1,2,4-triazol-3-yl]benzene-1,3-diamine] | 10 to 100 | ≤ 1 |  |  |  |
| FC(F)c1cc(Nc2ncn(-c3cccc(C(F)(F)F)c3)n2)nc(N2CCN(C3COC3)CC2)c1 [Compound 680, 4-(difluoromethyl)-6-[4-(oxetan-3-yl)piperazin-1-yl]-N-[1-[3-(trifluoromethyl)phenyl]-1,2,4-triazol-3-yl]pyridin-2-amine] |  |  |  |  | fold induction at 1 µM [4]: 10 to 100; fold induction at 10 µM [4]: 10 to 100 |
| Cc1cc(Nc2ncn(-c3ccnc(F)c3)n2)cc(N2CCN(C3COC3)CC2)c1 [Compound 40, 1-(2-fluoro-4-pyridyl)-N-[3-methyl-5-[4-(oxetan-3-yl)piperazin-1-yl]phenyl]-1,2,4-triazol-3-amine] | 1000 to 10000 | 10 to 100 |  |  |  |
| CC(C)Oc1cc(F)cc(-n2cnc(Nc3cc(C4CC4)cc(N4CCN(C5COC5)CC4)c3)n2)c1 [Compound 285, N-[3-cyclopropyl-5-[4-(oxetan-3-yl)piperazin-1-yl]phenyl]-1-(3-fluoro-5-isopropoxy-phenyl)-1,2,4-triazol-3-amine] | 1 to 10 | 10 to 100 |  |  |  |
| CCOCCOC1CCN(c2cc(C)cc(Nc3ncn(-c4cc(F)cc(F)c4)n3)c2)CC1 [Compound 962, 1-(3,5-difluorophenyl)-N-[3-[4-(2-ethoxyethoxy)-1-piperidyl]-5-methyl-phenyl]-1,2,4-triazol-3-amine] |  |  | 1 to 10 | 1 to 10 |  |
| Cc1cc(Nc2ncn(-c3cc(F)cc(F)c3)n2)cc(N2CCCC2CN2CCCC2CO)c1 (centres unmarked) [Compound 1077, [1-[[1-[3-[[1-(3,5-difluorophenyl)-1,2,4-triazol-3-yl]amino]-5-methyl-phenyl]pyrrolidin-2-yl]methyl]pyrrolidin-2-yl]methanol] |  |  | 1 to 10 | ≤ 1 |  |
| CCc1cc(Nc2ncn(-c3cc(C)ncn3)n2)cc(N2CCN(C3COC3)CC2)c1 [Compound 58, N-[3-ethyl-5-[4-(oxetan-3-yl)piperazin-1-yl]phenyl]-1-(6-methylpyrimidin-4-yl)-1,2,4-triazol-3-amine] | 100 to 1000 | 100 to 1000 |  |  |  |
| Cc1cc(Nc2ccn(C(C)C)n2)cc(Nc2ncn(-c3ccccc3)n2)c1 [Compound 669, N3-(1-isopropylpyrazol-3-yl)-5-methyl-N1-(1-phenyl-1,2,4-triazol-3-yl)benzene-1,3-diamine] |  |  |  |  | fold induction at 1 µM [4]: 10 to 100; fold induction at 10 µM [4]: ≤ 1 |
| Cc1cc(Nc2ncn(-c3ccc(F)c(F)c3)n2)cc(N2CCN(C)CC2)c1 [Compound 317, 1-(3,4-difluorophenyl)-N-[3-methyl-5-(4-methylpiperazin-1-yl)phenyl]-1,2,4-triazol-3-amine] | 100 to 1000 | 10 to 100 |  |  |  |
| Cc1cc(NC[C@@]2(C)CCCO2)cc(Nc2ncn(-c3cc(F)cc(F)c3)n2)c1 (stereo in doubt) [Compound 490, N1-[1-(3,5-difluorophenyl)-1,2,4-triazol-3-yl]-5-methyl-N3-[(2-methyltetrahydrofuran-2-yl)methyl]benzene-1,3-diamine] |  |  |  |  | fold induction at 1 µM [4]: 10 to 100; fold induction at 10 µM [4]: 10 to 100 |
